Legend:
Format in all cases: functional
Conditions in all cases: route intraperitoneal
Mus musculus [1] = assay: Antidiabetic activity in streptozotocin-induced C57/BL6J mouse diabetic model assessed as serum glucose level at 50 mg/kg, ip after 14 days (reference value: 22.17 +/- 5.63 mmol/L)
Mus musculus [2] = assay: Antidiabetic activity in streptozotocin-induced C57/BL6J mouse diabetic model assessed as serum glucose level at 50 mg/kg, ip after 21 days (reference value: 23.89 +/- 6.98 mmol/L)
Mus musculus [3] = assay: Antidiabetic activity in streptozotocin-induced C57/BL6J mouse diabetic model assessed as serum glucose level at 50 mg/kg, ip after 7 days (reference value: 22.65 +/- 6.16 mmol/L)
Mus musculus [4] = assay: Antidiabetic activity in streptozotocin-induced C57/BL6J mouse diabetic model assessed as serum glucose level at 50 mg/kg, ip after 28 days (reference value: 23.77 +/- 6.12 mmol/L)

Row | SMILES | Activity (Mus musculus [1]) [mmol/L] | Activity (Mus musculus [2]) [mmol/L] | Activity (Mus musculus [3]) [mmol/L] | Activity (Mus musculus [4]) [mmol/L]
1 | CC/C=C\C/C=C\C/C=C\CCCCCCCC(=O)OCC(O)CO[C@@H]1O[C@H](CO[C@@H]2O[C@H](CO[C@@H]3O[C@H](CO[C@@H]4O[C@H](CO)[C@H](O)[C@H](O)[C@H]4O)[C@H](O)[C@H](O)[C@H]3O)[C@H](O)[C@H](O)[C@H]2O)[C@H](O)[C@H](O)[C@H]1O (stereo partly drawn) | 18.27 | 16.36 | 20.89 | 14.61
2 | CCCCC/C=C\C/C=C\CCCCCCCC(=O)OCC(O)CO[C@@H]1O[C@H](CO[C@@H]2O[C@H](CO[C@@H]3O[C@H](CO[C@@H]4O[C@H](CO)[C@H](O)[C@H](O)[C@H]4O)[C@H](O)[C@H](O)[C@H]3O)[C@H](O)[C@H](O)[C@H]2O)[C@H](O)[C@H](O)[C@H]1O (stereo partly drawn) | 19.09 | 18.17 | 21.47 | 15.73
